Results reported in patent publication US11247994B2, “6-dithio-substituted-2′-deoxyguanosine compound, preparation method thereof and use thereof” (ZHEJIANG UNIVERSITY, priority 2018, dated 2022).

Key:
[1] = molecular target: T1, TrxR/Trx-1 (Homo sapiens, UniProt P10599); experiment: Ellman test, inhibition of TrxR/Trx-1 activity; format: biochemical; conditions: Ellman reaction, 37° C. 30 min, absorbance 412 nm; read-out: IC50, inhibition of TrxR/Trx-1 activity
T1 sequence (P10599 2-105 limits assumed): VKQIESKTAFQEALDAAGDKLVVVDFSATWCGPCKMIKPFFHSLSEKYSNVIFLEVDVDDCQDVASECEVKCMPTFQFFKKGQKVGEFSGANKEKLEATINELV
From the text: Ellman Test—Inhibitory Effect of 6-dithio-substituted-2′-deoxyguanosine Derivative Analogues on TrxR/Trx-1 Activity
A TrxR/TR experiment based on the Ellman reaction was used to determine the inhibitory activity of candidate compounds. Ellman reaction is that 5,5′-dithiobis (2-nitrobenzoic acid) (DTNB) reacts with sulfhydryl (—SH) to form a yellow substance with absorption at 412 nm. The increase of absorption can be equivalent to the decrease of NADPH mediated by TrxR, thus further judging the activity of TrxR/Trx-1. All experiments were carried out on 96-well plates. Before the start of the enzyme reaction, five groups of corresponding test compound stock solutions with different concentrations were prepared. In the TrxR/Trx-1 reaction, a total volume per well was 60 μL, including 100 mM HEPES, 5 mM EDTA (HE buffer, pH 7.5), 1 mM NADPH, 1.0 μM TrxR, 0.8 μM Trx-1, 2.5 mg/mL bovine insulin and the required concentration of compounds to be tested. No compound to be tested was added to the control group. No compound to be tested, TrxR and Trx-1 were added in the blank group. The plate was shaken on an oscillator for 30 seconds to fully mix the reactants. After incubation at 37° C. for 30 min, 100 μL of the prepared mixture containing 6 M guanidine hydrochloride, 50 mm Tris and 10 mm DTNB was added to terminate the reaction. After 15 minutes of incubation, the absorbance was measured at 412 nm. Finally, TrxR/Trx-1 activity %=(Atest−Akb)/(Acontrol−Akb), that is, the relative percentage of TrxR/Trx-1 activity was the activity inhibited by adding 2′-deoxyguanosine derivatives relative to the activity without 2′-deoxyguanosine derivatives. The data were fitted into a concentration response curve with a variable slope, and the IC50 value was calculated from the curve.

[2] = tested on: NCM460; experiment: MTT assay, cell growth inhibition, NCM460; format: cell-based; conditions: Homo sapiens, 48 hours, read-out: Tumor cell growth inhibition IC50, NCM460
From the text: (§1) MTT Assay—Inhibitory Effect of 6-dithio-substituted-2′-deoxyguanosine Derivatives on Tumor Cell Growth
(§2) We measured the tumor cell growth inhibitory activity of candidate compounds by MTT assay. Human tumor cells in logarithmic growth phase were digested with 0.25% pancreatin for a certain time, centrifuged, re-suspended and counted with a blood cell counting plate to prepare a cell suspension, and the cell suspension was adjusted to 1.0×10^4-1×10^5 cells/mL. The cell suspension was inoculated into a 96-well culture plate, 100 μL per well, and cultured in an incubator with saturated humidity, 37° C. and 5% CO2 for 24 hours until the cells completely adhered to the wall. The test compound was diluted to the required concentration with a complete medium, the complete medium of the 96-well culture plate inoculated with human tumor cells was sucked out, a medicament-containing medium was added, 100 μL per well, the final concentration of DMSO was less than 0.1%, and the culture plate was put in an incubator for 48 hours. 10 μl of MTT was added to each well of the 96-well plate, and the culture was continued for 4 h. The culture was stopped and the culture solution in the well was carefully sucked off. 150 μL DMSO was added to each well, and shaken at a low speed for 10 min on a shaking table, so that the crystal was fully dissolved. The absorbance of each well was measured at OD 570 nm of an enzyme-linked immunosorbent assay instrument. At the same time, zeroing wells (the culture medium, MTT, dimethyl sulfoxide) and control wells (cells, a drug dissolution medium with the same concentration, a culture solution, MTT, dimethyl sulfoxide) were set up, and the cell growth inhibitory activity was calculated with the corresponding solvents as the control. 3-6 multiple wells in each group were set up with repetition of several times. Cell viability of control=(Adrug group−Azeroing well)/(Acontrol well−Azeroing well)*100%. Drawing was drawn, the data were fitted into a concentration response curve with a variable slope, and IC50 value was calculated from the curve.

[3] = tested on: human colon cancer cells HCT116; experiment: MTT assay, tumor cell growth inhibition, HCT116; format: cell-based; conditions: HCT-116, 48 hours
From the text: as §1, §2

[4] = tested on: human colon cancer cells SW620; experiment: MTT assay, tumor cell growth inhibition, SW620; format: cell-based; conditions: SW-620, 48 hours
From the text: as §1, §2

[5] = tested on: human colon cancer cells HT29; experiment: MTT assay, tumor cell growth inhibition, HT29; format: cell-based; conditions: HT-29, 48 hours
From the text: as §1, §2

[6] = tested on: human melanoma cells A375; experiment: MTT assay, tumor cell growth inhibition, A375; format: cell-based; conditions: A-375, 48 hours
From the text: as §1, §2

[7] = tested on: human gastric cancer cells BGC; experiment: MTT assay, tumor cell growth inhibition, BGC; format: cell-based; conditions: 48 hours
From the text: as §1, §2

[8] = tested on: human leukemia cells K562; experiment: MTT assay, tumor cell growth inhibition, K562; format: cell-based; conditions: 48 hours
From the text: as §1, §2

[9] = tested on: human liver cancer cells HepG2; experiment: MTT assay, tumor cell growth inhibition, HepG2; format: cell-based; conditions: 48 hours
From the text: as §1, §2

[10] = tested on: human non-small cell lung cancer A549; experiment: MTT assay, tumor cell growth inhibition, A549; format: cell-based; conditions: 48 hours
From the text: as §1, §2

[11] = tested on: human breast cancer cells Bcap37; experiment: MTT assay, tumor cell growth inhibition, Bcap37; format: cell-based; conditions: 48 hours
From the text: as §1, §2

[12] = tested on: human colon cancer cell line HCT116 subcutaneous transplanted tumor; experiment: Tumor-bearing test in nude mice, HCT116 subcutaneous transplanted tumor (tumor volume, TUNEL); format: in vivo; conditions: HCT116 model; for Extent of apoptosis in tumor tissue (TUNEL staining, rank order): frozen tumor sections, DAPI and TUNEL, G group = blank; for Inhibitory effect on the growth of subcutaneous transplanted tumor tissue in nude mice (rank order, from slope of tumor volume): compound A 2 mg/kg first 8 times, 10 mg/kg last 4 times, others equimolar, KB = blank
From the text: Tumor-Bearing Test in Nude Mice—Inhibitory Effect of 6-Dithio-Substituted-2′-Deoxyguanosine Derivatives on the Growth of Subcutaneous Transplanted Tumor Tissue in Nude Mice
1) Tumor-Bearing Mouse Model of Human Colon Cancer Cell Line HCT116
(§3) We took human colon cancer cell line HCT116 as the research object, and established a subcutaneous transplanted tumor model of human colon cancer in 32 immunodeficient nude mice. The 24th generation HCT116 cells in logarithmic growth phase were digested with pancreatin to prepare a single-cell suspension, and 1×10^7 cells were inoculated subcutaneously in the right armpit of male nude mice about 5 weeks old. After inoculation, cyclophosphamide (100 mg/kg) was injected intraperitoneally for two consecutive days. […] On the 20th day after colon cancer cell HCT116 was implanted subcutaneously, nude mice were divided into 7 groups by a random number table method, including a test drug group, a positive control group and a blank control group. Specifically, group A: the compound A was administrated; Group B: the compound B was administrated; Group C: the compound C was administrated; Group D: the compound D was administrated; Group E: the compound 6-thio-DG was administrated; Group F: the compound PX-12 was administrated; Group G: blank group, without administration of any compound. Except group C with 3 rats and group G with 4 rats, all other 5 groups had 5 rats, they mice were labeled and injected by tail vein once every two days for 24 days, 12 times, with the dose of compound A being 2 mg/kg for the first 8 times and 10 mg/kg for the last 4 times, and the dosages of other drugs being the same molar weights. The tumor volume was calculated by taking the length of the tumor as the longest diameter and the width as the corresponding vertical diameter, and the tumor volume V=(length×width^2) mm^3/2. 48 hours after the last treatment, blood was taken from the eyes, and then the animals were killed. Blood was centrifuged to get the supernatant, and then blood biochemical analysis was performed. Paraffin embedded sections of fixed tissues were stained with HE. The tumor mass in a frozen tissue was sectioned in a frozen state, and then stained by DAPI and TUNEL to judge the apoptosis of the tumor tissue in nude mice.

[13] = Blood biochemical analysis and HE staining of tissues in HCT116 tumor-bearing nude mice; format: in vivo; conditions: tail vein once every two days, 12 times, blood 48 hours after the last treatment
Experimental: as §3

[14] = tested on: human breast cancer cells MCF7; experiment: MTT assay, tumor cell growth inhibition, MCF7; format: cell-based; conditions: 48 hours
From the text: as §1, §2

[15] = tail vein once every two days for 24 days

IC50 [1] [µM] | IC50 [3] [µM] | IC50 [4] [µM] | IC50 [5] [µM] | IC50 [6] [µM] | IC50 [7] [µM] | IC50 [8] [µM] | IC50 [9] [µM] | IC50 [10] [µM] | IC50 [11] [µM] | Alanine aminotransferase [13] [U/L] | Albumin [13] [g/L] | Alkaline phosphatase [13] [U/L] | Aspartate aminotransferase [13] [U/L] | BUN [13] [mmol/L] | Chloride ion [13] [mmol/L] | Creatine kinase [13] [U/L] | SMILES | IC50 [2] [µM] | Extent of apoptosis in tumor tissue (TUNEL staining, rank order) [12] | Inhibitory effect on the growth of subcutaneous transplanted tumor tissue in nude mice (rank order, from slope of tumor volume) [12, 15] | other results
31.7 | 1.27 | 0.21 | 4.55 | 0.6 | 6.09 | 9.88 | 10 to 50 | 30.8 | 18.2 | 33.3 | 24.8 | 36.0 | 153.4 | 10.7 | 113.8 | 1896 | CCC(C)SSc1nc(N)nc2c1ncn2C1C[C@H](O)[C@@H](CO)O1 (stereo partly shown) [Compound A, 6-(sec-butyldithio)-2′-deoxyguanosine] | > 1000 | D group>A group≈B group≈E group (6-thio-dG group)>C group>F group (PX-12 group)>G group (KB group) | D>B≈A≈6-thio-dG>PX-12>C>KB | Ability to inhibit the growth of transplanted tumor tissue compared with positive controls ([12]; tail vein once every two days for 24 days, equimolar doses): close to that of the positive control 6-thio-dG and stronger than that of the positive control PX-12; Creatinine [13]: -0.80 µmol/L; Glucose [13]: 2.21 mmol/L; Potassium ion [13]: 7.56 mmol/L; Sodium ion [13]: 155.6 mmol/L; Total bilirubin [13]: 0.40 µmol/L; Total cholesterol [13]: 2.99 mmol/L; Total protein [13]: 52.6 g/L; Triglyceride [13]: 0.84 mmol/L
> 100 | 17.5 | > 100 | 3.04 | 0.4 | > 100 | 23.3 | < 10 | 33.6 | > 100 | 44.3 | 29.8 | 49.6 | 172.4 | 11.5 | 120.8 | 2125 | Nc1nc2c(ncn2[C@H]2C[C@H](O)[C@@H](CO)O2)c(=S)[nH]1 [Compound 6-thio-dG, 6-thio-2′-deoxyguanosine, reference compound] | > 1000 | D group>A group≈B group≈E group (6-thio-dG group)>C group>F group (PX-12 group)>G group (KB group) | D>B≈A≈6-thio-dG>PX-12>C>KB | IC50 [14]: > 100 µM; Creatinine [13]: 12.0 µmol/L; Glucose [13]: 3.12 mmol/L; Potassium ion [13]: 7.18 mmol/L; Sodium ion [13]: 158.8 mmol/L; Total bilirubin [13]: -0.10 µmol/L; Total cholesterol [13]: 2.62 mmol/L; Total protein [13]: 51.8 g/L; Triglyceride [13]: 1.10 mmol/L
